Data reported in patent US20240228556A9, “NOVEL CANINE ODORANT BINDING PROTEINS” (SPECIALITES PET FOOD, priority 2021, published 2024).
Substitutions are numbered along the chain they refer to.

Tests used:
[1] = target: T1, CfamOBP2 (Canis lupus familiaris, UniProt O18874); assay: Fluorescence competitive binding assay (NPN displacement); conditions: 2 μM OBP, 4 μM NPN, 20° C., pH 7.5, odorant 0.5-20 μM
T1 construct: His tag (from pQE31 vector) (N); made in house; host or cells: E. coli M15 (plasmid pQE31)
T1 sequence (O18874 19-180): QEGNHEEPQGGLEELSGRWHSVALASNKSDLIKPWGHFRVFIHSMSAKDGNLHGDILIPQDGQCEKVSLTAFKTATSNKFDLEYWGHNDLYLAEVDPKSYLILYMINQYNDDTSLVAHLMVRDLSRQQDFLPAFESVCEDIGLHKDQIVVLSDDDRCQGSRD
Protocol: (§1) Binding experiments were performed at 20° C. on a spectrofluorometer (Cary-Eclipse (Agilent, USA)) equipped with magnetic stirrers and a Peltier control temperature unit. The fluorescent probes: 1-N-phenylnaphthylamine (NPN) (Sigma, USA), 8-anilinonaphthalene-1-sulfonic acid (1,8-ANS) (Sigma, USA), and SYPRO™ orange (ThermoFischer, France) were excited at 337 nm, 372 nm and 490 nm respectively. Emission spectra were recorded between 350 and 500 nm for NPN; 400 and 600 nm for 1,8-ANS and 510 and 700 nm for SYPRO orange. Fluorescent probe binding experiments were performed in a 2 mL cuvette of 1 cm path length containing 2 μM OBPs in 50 mM potassium phosphate buffer at pH 7.5. The fluorescent probes were prepared in 100% MeOH at 0.1, 1, 10 and 100 mM. The concentration of the different fluorescent probes was increased into the 1 mL solution containing CfamOBPs until the adding allow to reach a fluorescence maximum of emission intensity. The binding curves were then traced using SigmaPlot 12.5 software.
(§2) Ligand competitive binding experiments were performed in cuvettes containing 2 μM OBPs, 10 μM fluorescent probe for CfamOBP1 and its variant (Seq ID No 14) and CfamOBP3, 4 μM fluorescent probe for CfamOBP2 and its variant (Seq ID No 15) and 1.25× fluorescent probe for CfamOBP4, in 50 mM potassium phosphate buffer at pH 7.5.
(§3) Odorants were prepared in 100% MeOH and aliquots were added to final concentrations of 0.5-20 μM. The experiments were performed in triplicate. The obtained data were then traced and analysed using SigmaPlot 12.5 software.

[2] = target: T2, CfamOBP2-K83 (variant of Seq ID No 15) (Canis lupus familiaris, UniProt O18874, E83K); assay: as above; conditions: 2 μM OBP, 4 μM NPN, 20° C., pH 7.5, odorant 0.5-20 μM
T2 construct: His tag (from pQE31 vector) (N); made in house; host or cells: E. coli M15 (plasmid pQE31)
T2 sequence (O18874 19-180 E83K): T1 sequence (O18874 19-180) with E65K
Protocol: as §1, §2, §3

[3] = target: T3, CfamOBP3 (Canis lupus familiaris, UniProt H2B3G5); assay: as above; conditions: 2 μM OBP, 10 μM NPN, 20° C., pH 7.5, odorant 0.5-20 μM
T3 construct: His tag (from pQE31 vector) (N); made in house; host or cells: E. coli M15 (plasmid pQE31)
T3 sequence (H2B3G5 16-190): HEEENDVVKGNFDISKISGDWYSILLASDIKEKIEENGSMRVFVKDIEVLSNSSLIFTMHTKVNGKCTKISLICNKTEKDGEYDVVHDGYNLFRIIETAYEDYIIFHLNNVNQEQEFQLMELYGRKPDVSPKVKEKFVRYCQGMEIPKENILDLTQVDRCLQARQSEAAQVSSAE
Protocol: as §1, §2, §3

[4] = target: T4, CfamOBP3-102Y (mutant of Seq ID No 35) (Canis lupus familiaris, UniProt H2B3G5, H102Y); assay: Isothermal titration calorimetry; type: binding; conditions: ITC at 25° C., 25 μM protein, 250 μM odorant, pH 7.5; mutant compared with CfamOBP3
T4 construct: His tag (MRGSHHHHHH leader of pQE31, then TDP from the BamHI site) (N); made in house; host or cells: E. coli M15 (plasmid pQE31)
T4 sequence (H2B3G5 16-190 H102Y): T3 sequence (H2B3G5 16-190) with H87Y
Protocol: Titration experiments were carried at 25° C. using isothermal titration microcalorimeter VP-ITC system (Malvern Instruments, Malvern, UK). 100 mM odorant solution in MeOH were diluted to 250 μM into 100 mM potassium phosphate buffer, pH 7.5 and loaded into the syringe. Protein solutions were prepared at 25 μM in the phosphate buffer and degassed directly prior to experiment and injected into the measure cell. Injections of 10 μL ligand solution into the protein containing cell were performed at time intervals of 210 s with a total of 25 injections. Analysis of the experimental data was performed using the Origin 5.0 program (Malvern Instruments, Malvern, UK) and fitted by a model of one binding site. Binding parameters such as stoichiometry (n) and the association constant (KA) were determined by this fitting.

[5] = target: T5, CfamOBP1 (Canis lupus familiaris, UniProt O18873); assay: Fluorescence competitive binding assay (1,8-ANS displacement); conditions: 2 μM OBP, 10 μM 1,8-ANS, 20° C., pH 7.5, odorant 0.5-20 μM
T5 construct: His tag (from pQE31 vector) (N); made in house; host or cells: E. coli M15 (plasmid pQE31)
T5 sequence (O18873 19-174): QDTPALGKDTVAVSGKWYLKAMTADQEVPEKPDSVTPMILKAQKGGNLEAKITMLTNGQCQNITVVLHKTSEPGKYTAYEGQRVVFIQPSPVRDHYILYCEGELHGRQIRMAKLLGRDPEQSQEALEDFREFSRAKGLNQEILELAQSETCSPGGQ
Protocol: as §1, with “software. […]” for “software.”
(§4) Odorants were prepared in 100% MeOH and aliquots were added to final concentrations of 0.5-20 μM. […] The obtained data were then traced and analysed using SigmaPlot 12.5 software.

[6] = target: T6, CfamOBP1-L52 (variant of Seq ID No 14) (Canis lupus familiaris, UniProt O18873, S52L); assay: as above; conditions: 2 μM OBP, 10 μM 1,8-ANS, 20° C., pH 7.5, odorant 0.5-20 μM
T6 construct: His tag (from pQE31 vector) (N); made in house; host or cells: E. coli M15 (plasmid pQE31)
T6 sequence (O18873 19-174 S52L): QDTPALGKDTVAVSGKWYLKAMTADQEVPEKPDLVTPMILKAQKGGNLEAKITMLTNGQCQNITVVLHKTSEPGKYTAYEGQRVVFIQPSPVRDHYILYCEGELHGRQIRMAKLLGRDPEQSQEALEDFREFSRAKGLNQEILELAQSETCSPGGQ
Protocol: as §1, with “software. […]” for “software.”
as §4

CC(C)CCCC(C)CCO (stereo not drawn) [DMO, 3,7-dimethyl-1-octanol]
displacement of the fluorescent probe [1]: able to displace the probes
displacement of the fluorescent probe [2]: able to displace the probes

COc1nccnc1CC(C)C [IBMP, 2-isobutyl-3-methoxypyrazine]
displacement of the fluorescent probe [3]: able to displace the probes
change of Ka value (affinity) versus CfamOBP3 [4]: eight fold increase

CC(C)=CCCC(C)CC=O (stereo not drawn) [citronellal]
displacement of the fluorescent probe [5]: able to displace the probes
displacement of the fluorescent probe [6]: able to displace the probes
